Assay results as given in US5166208A, “Fredericamycin A derivatives” (Boston College, priority 1991, dated 1992).
In brackets after ≈: the same amount, converted by molar mass. Structures can show the parent of a compound that is named as a salt.

What was measured:
murine melanoma (B16) = assay: In vitro microdilution inhibition, B16; type: cell-based; conditions: Mus musculus; B16, 72 hours, 50% of cells killed
Description: (§1) As shown in Table III the compounds of the present invention exert an in vitro antitumor effect. The following cells lines were employed: human lung (A549); resistant human lung with low topo II activity (A549-VP); murine melanoma (B16); human colon tumor (HCT116); human colon tumor with elevated p170 levels (HCTVM); human colon tumor with low topo II activity (HCTVP); and another human colon carcinoma cell line (Moser). In the Table, the designation "NT" indicates the compound was not tested against the specified cell line. The cell lines were maintained in continuous culture at 37°, 5% CO2 and high humidity. Cells were harvested in log phase growth and suspended at concentration of 25,000 cells/mL. A […] aliquot was then added to each well (i.e., 3,750 cells per well) of a 96-well flat bottom plate and the cells were allowed to attach over a 24 hour period. After this 24 hour incubation, a 50 μL sample of the specified compound was added to the first (top) well of each column, and the remaining wells of each column serially diluted, 1:4, and allowed to incubate for 72 hours at 37° C., 5% CO2 and high humidity. Following incubation, 50 μL of freshly prepared stain solution was added to each well. After a 3 hour incubation at room temperature, absorbance was read at 450 nm on a microplate reader to determine the compound concentration at which 50% of the cells were killed, such concentration referred to as the "IC50 ".

[1] = system: human colon tumor (HCT116); assay: In vitro microdilution inhibition, HCT116; type: cell-based; conditions: HCT-116, 72 hours, 50% of cells killed
Description: as §1

human lung (A549) = assay: In vitro microdilution inhibition, human lung A549; type: cell-based; conditions: A549, 72 hours, 50% of cells killed
Description: as §1

[2] = system: human colon tumor with elevated p170 levels (HCTVM); assay: In vitro microdilution inhibition, HCTVM; type: cell-based; conditions: 72 hours, 50% of cells killed
Description: as §1

[3] = system: resistant human lung with low topo II activity (A549-VP); assay: In vitro microdilution inhibition, resistant human lung A549-VP; type: cell-based; conditions: A549VP, 72 hours, 50% of cells killed
Description: as §1

[4] = system: human colon tumor with low topo II activity (HCTVP); assay: In vitro microdilution inhibition, HCTVP; type: cell-based; conditions: 72 hours, 50% of cells killed
Description: as §1

p388 murine leukemia = assay: In vivo activity against p388 murine leukemia in an acute mouse model; conditions: CDF1 (female only); for AWC (average weight change per mouse): before treatment to day five
Description: CDF1 mice of both sexes weighing between 16 and 25 gm. were used, with a 2 gm. weight range and same sex and source used per experiment. BDF1 mice also were used with the same weight, sex and source parameters. Control and test animals were injected interperitoneally with suspension of 1×10^6 p388 murine leukemia cells (0.5 mL dose) on day 0. Groups of 4-6 mice were used for each dosage amount they were treated with 5 doses on day one. A group of ten saline treated control mice was included in each set of experiments. A 30 day protocol was employed with mean survival time in days being determined for each group of mice with the number of survivors at the end of the 30 day period being noted. The mice were weighed before treatment and again on day five. The values listed for average weight change (AWC) is the average weight change per mouse at the specified dose. The change in weight was taken as a measure of drug toxicity. A loss in weight of up to 2 grams is not considered excessive. The results were determined in terms of % T/C which is the ratio of the mean survival time of the treated group to the mean survival time of the saline treated group times 100.

Structure (SMILES) | IC50 (murine melanoma (B16)) [µg/mL] | IC50 [1] [µg/mL] | IC50 (human lung (A549)) [µg/mL] | IC50 [2] [µg/mL] | IC50 [3] [µg/mL] | IC50 [4] [µg/mL] | further results
COCOc1cccc2c1C1(CC2)C(=O)c2c(O)c3c(c(O)c2C1=O)C(=O)C(NCC(O)c1ccccc1)=CC3=O (centres unmarked) [Example 17, 2',3'-Dihydro-7'-(methoxymethoxy)-1H-indene-1'-spiro-2-[6-(2-hydroxy-2-phenyl-ethylamino)-4,9-dihydroxy-2H-benz[f]indene-1,3,5,8-tetrone]] | 15 (≈ 27 µM) | 1.47 (≈ 2.65 µM) |  |  |  |  | 
COCOc1cccc2c1C1(CC2)C(=O)c2c(O)c3c(c(O)c2C1=O)C(=O)C(Sc1ccccc1)=C(Sc1ccccc1)C3=O [Example 31, 2',3'-Dihydro-7'-(methoxymethoxy)-1H-indene-1'-spiro-2-[6,7-di(phenylmercapto)-4,9-dihydroxy-2H-benz[f]indene-I,3,5,8-tetrone]] | > 16 | > 16 | > 16 | > 16 | > 16 | > 16 | 
COCOc1cccc2c1C1(CC2)C(=O)c2c(O)c3c(c(O)c2C1=O)C(=O)C(Nc1ccc(SSc2ccc(N)cc2)cc1)=CC3=O (centres unmarked) [Example 36, 2',3'-Dihydro-7'-(methoxymethoxy)-1H-indene-1'-spiro-2-[4,9-dihydroxy-6-(4-(4-aminophenyldithio)phenylamino)-2H-benz[f]indene-1,3,5,8-tetrone]] | 458 (≈ 687 µM) | > 500 |  |  |  |  | 
COCOc1cccc2c1C1(CC2)C(=O)c2c(O)c3c(c(O)c2C1=O)C(=O)C(Nc1ccccc1)=CC3=O (centres unmarked) [Example 18, 2',3'-Dihydro-7'-(methoxymethoxy)-1H-indene-1,-spiro-2-[6-(phenylamino)-4,9-dihydroxy-2H-benz[f]indene-1,3,5,8-tetrone]] | 0.08 (≈ 0.156 µM) | 0.09 (≈ 0.176 µM) | 0.08 (≈ 0.156 µM) | 0.11 (≈ 0.215 µM) | 0.06 (≈ 0.117 µM) | 0.07 (≈ 0.137 µM) | 
COCOc1cccc2c1C1(CC2)C(=O)c2c(O)c3c(c(O)c2C1=O)C(=O)C(SCCO)=CC3=O (centres unmarked) [Example 33, 2',3'-Dihydro-7'-(methoxymethoxy)-1H-indene-1'-spiro-2-[4,9-dihydroxy-6-(2-hydroxyethylmercapto)-2H-benz[f]indene-1,3,5,8-tetrone]] | 107 (≈ 216 µM) | 5.08 (≈ 10.2 µM) |  |  |  |  | 
COCOc1cccc2c1C1(CC2)C(=O)c2c(O)c3c(c(O)c2C1=O)C(=O)C(Sc1ccccc1)=CC3=O (centres unmarked) [Example 34, 2',3'-Dihydro-7'-(methoxymethoxy)-1H-indene-1'-spiro-2-[4,9-dihydroxy-6-(phenylmercapto)-2H-benz[f]indene-1,3,5,8-tetrone]] | 110 (≈ 208 µM) | 78 (≈ 148 µM) |  |  |  |  | 
COCOc1cccc2c1C1(CC2)C(=O)c2c(O)c3c(c(O)c2C1=O)C(=O)C(N[C@@H](CC(N)=O)C(=O)O)=CC3=O (some centres unmarked) [Example 26, 2',3'-Dihydro-7'-(methoxymethoxy)-1H-indene-1'-spiro-2-4,9-dihydroxy-6-(1-carboxy-2-carbamoylethylamino)-2H-benz[f]indene-1,3,5,8-tetrone] | 9.3 (≈ 16.9 µM) | 1.23 (≈ 2.23 µM) |  |  |  |  | 
CCNC1=CC(=O)c2c(O)c3c(c(O)c2C1=O)C(=O)C1(CCc2cccc(OCOC)c21)C3=O (centres unmarked) [Example 11, 2',3'-Dihydro-6-ethylamino-7'-(methoxymethoxy)-1H-indene-1'-spiro-2-[4,9-dihydroxy-2H-benz[f]-indene-1,3,5,8-tetrone]] | 0.03 (≈ 0.0647 µM) | 0.03 (≈ 0.0647 µM) | < 0.03 | 0.03 (≈ 0.0647 µM) | 0.03 (≈ 0.0647 µM) | 0.03 (≈ 0.0647 µM) | 
COCOc1cccc2c1C1(CC2)C(=O)c2c(O)c3c(c(O)c2C1=O)C(=O)C(NCC(=O)O)=CC3=O (centres unmarked) [Example 29, 2',3'-Dihydro-7'-(methoxymethoxy)-1H-indene-1'-spiro-2-[6-((carboxymethyl)amino)-4,9-dihydroxy-2H-benz[f]indene-1,3,5,8-tetrone]sodium salt] | 0.8 | 0.9 | 1.2 | 1 | 1.6 | 1 | 
CCCCCc1cc2cc3c(c(OCOC)c2c(OC)n1)C1(CC3)C(=O)c2c(O)c3c(c(O)c2C1=O)C(=O)C(NCC)=CC3=O (centres unmarked) [Example 22, 6',7'-Dihydro-4,9-dihydroxy-6-ethylamino-1'-methoxy-9'-(methoxymethoxy)-3'-(n-pentyl)-spiro[2H-benz[f]-indene-2,8'[8H]cyclopent[g]isoquinoline]-1,3,5,8-tetrone] |  |  |  |  |  |  | AWC (average weight change per mouse) (p388 murine leukemia; 3.3 mg/kg): 1.5; AWC (average weight change per mouse) (p388 murine leukemia; 10 mg/kg): 1.0; AWC (average weight change per mouse) (p388 murine leukemia; 30 mg/kg): -0.2; response vs control in vivo at 3.3 mg/kg (p388 murine leukemia; Mus musculus, P388, 720 h, 3.3 mg/kg, read-out: % T/C (mean survival time treated/control)): 95%; response vs control in vivo at 10 mg/kg (p388 murine leukemia; Mus musculus, P388, 720 h, 10 mg/kg, read-out: % T/C (mean survival time treated/control)): 105%; response vs control in vivo at 30 mg/kg (p388 murine leukemia; Mus musculus, P388, 720 h, 30 mg/kg, read-out: % T/C (mean survival time treated/control)): 135%
COC1=CC(=O)c2c(O)c3c(c(O)c2C1=O)C(=O)C1(CCc2cccc(O)c21)C3=O (centres unmarked) [Example 6, 2',3'-Dihydro-7'-hydroxy-6-methoxy-1H-indene-1'-spiro-2-[4,9-dihydroxy-2H-benz[f]indene-1,3,5,8-tetrone]] | 5.2 (≈ 12.8 µM) | 1.6 (≈ 3.94 µM) | 4.9 (≈ 12.1 µM) | 1.7 (≈ 4.18 µM) | 6.4 (≈ 15.8 µM) | 3.5 (≈ 8.61 µM) | 
COCOc1cccc2c1C1(CC2)C(=O)c2c(O)c3c(c(O)c2C1=O)C(=O)C(Nc1ccc(C(=O)O)cc1)=CC3=O (centres unmarked) [Example 19, 2',3'-Dihydro-7'-(methoxymethoxy)-1H-indene-1'-spiro-2-[6-(4-carboxyanilino)-4,9-dihydroxy-2H-benz[f]indene-1,3,5,8-tetrone]] | 27 (≈ 48.6 µM) | 322 (≈ 580 µM) |  |  |  |  | 
NCCSSCCNC1=CC(=O)c2c(O)c3c(c(O)c2C1=O)C(=O)C1(CCc2cccc(O)c21)C3=O (centres unmarked) [Example 35, 2',3'-Dihydro-7'-hydroxy-1H-indene-1'-spiro-2-[4,9-dihydroxy-6-(2(2-aminoethyldithio)ethylamino)-2H-benz[f]indene-1,3,5,8-tetrone] hydrochloride] | 24 |  |  |  |  | 22 | 
COCOc1cccc2c1C1(CC2)C(=O)c2c(O)c3c(c(O)c2C1=O)C(=O)C(NCC(F)(F)F)=CC3=O (centres unmarked) [Example 13, 2',3'-Dihydro-6-(2,2,2-trifluoroethylamino)-7'-(methoxymethoxy)-1H-indene-1'-spiro-2-[4,9-dihydroxy-2H-benz[f]-indene-1,3,5,8-tetrone]] | 0.03 (≈ 0.058 µM) | 0.03 (≈ 0.058 µM) | < 0.03 | 0.03 (≈ 0.058 µM) | 0.05 (≈ 0.0966 µM) | 0.04 (≈ 0.0773 µM) | 
O=C1C(Sc2ccccc2)=C(Sc2ccccc2)C(=O)c2c(O)c3c(c(O)c21)C(=O)C1(CCc2cccc(O)c21)C3=O [Example 32, 2',3'-Dihydro-7'-hydroxy-1H-indene-1'-spiro-2-[4,9-dihydroxy-6,7-di(phenylmercapto)-2H-benz[f]indene-1,3,5,8-tetrone]] | > 16 | > 16 | > 16 | > 16 | > 16 | > 16 | 
N=C(N)NCCC[C@H](NC1=CC(=O)c2c(O)c3c(c(O)c2C1=O)C(=O)C1(CCc2cccc(O)c21)C3=O)C(=O)O (some centres unmarked) [Example 28] | > 500 | 71 (≈ 129 µM) |  |  |  |  | 
COCOc1cccc2c1C1(CC2)C(=O)c2c(O)c3c(c(O)c2C1=O)C(=O)C(Nc1ccc(O)cc1)=CC3=O (centres unmarked) [Example 21, 2',3'-Dihydro-7'-(methoxymethoxy)-1H-indene-1'-spiro-2-[6-(4-hydroxyanilino)-4,9-dihydroxy-2H-benz[f]indene-1,3,5,8-tetrone]] | 18.7 (≈ 35.5 µM) | 6.79 (≈ 12.9 µM) |  |  |  |  | 
COCOc1cccc2c1C1(CC2)C(=O)c2c(O)c3c(c(O)c2C1=O)C(=O)C(NC1C(=O)N2C1SC(C)(C)C2C(=O)O)=CC3=O (centres unmarked) [Example 27, 6-((2',3'-dihydro-7'-(methoxymethoxy)-1H-indene-1'-spiro-[4,9-dihydroxy-2H-benz[f]indene-1,3,5,8-tetrone]-6-yl)amino)penicillanic acid] | 0.24 (≈ 0.378 µM) |  |  |  |  | 0.22 (≈ 0.347 µM) | 
